{
  "source": "patent US5795885A",
  "about": "“Method of inhibiting profileration of cells by administering an aminosterol compound” (priority 1995, dated 1998)",
  "key": {"[1]": {"tested_on": "HM", "experiment": "HM MTT assay", "type": "cell-based", "conditions": "Table II; read-out: Minimum Effective Concentration, HM MTT assay"}, "[2]": {"tested_on": "chick embryo vitelline capillaries", "experiment": "chick embryo vitelline capillary regression assay", "type": "in vivo", "design": "key to vitelline capillary regression: +: Vascular reactivity; 0: No vascular reactivity; +/-: Equivocal reactivity", "experimental": "Using the chick embryo vitelline capillaries assay, compounds were tested for their ability to induce capillary regression. Each compound was applied in 0.1 ml of 15% Ficol 400 and PBS onto the embryo, and vascular regression was assessed after 60 minutes.\nThe 3-day chick embryo consists of an embryonic disc from which numerous vessels emerge and return, forming a \"figure 8\"-shaped structure--the embryo in the center with vascular loops extending outward over both poles. […] Following a lag period of around 15 minutes, the constriction of continuity between capillary and secondary vessels, generally on the \"venous\" side, was observed. Continued pulsatile blood flow progressed, resulting in a \"swelling\" of the blind tube, followed by a pinching off of the remaining connection and formation of an enclosed vascular sac resembling a \"blood island.\" This process progressed until only the largest vessels remained intact."}, "[3]": {"tested_on": "PHA-stimulated human lymphocytes", "experiment": "inhibition of mitogen (PHA)-stimulated growth of human T-cells", "type": "cell-based", "conditions": "Homo sapiens, Lymphocyte, read-out: inhibition of PHA-stimulated human lymphocytes (% control)", "from_the_text": "Results are tabulated below."}, "[4]": {"type": "physicochemical", "from_the_text": "Compound 1361 was isolated from shark liver preparations in two different ways: first, as a degradation product of compound 1360; and, subsequently,as a minor aminosterol component fractionating with slightly faster retention time than squalamine during preparative C18 RP-HPLC (component of Fraction VI). In early attempts to purify each aminosterol to homogeneity, pooled fractions from C18 RP-HPLC were subjected to silica gel flash chromatography with CH2 Cl2 :CH30 H:NH4 OH 6:3:1, and the aminosterols were assayed on TLC plates. The pools of free base steroids were then re-subjected to C18 RP-HPLC, using an analytical column."}, "[5]": {"tested_on": "stage 59-60 Xenopus tadpoles", "conditions": "10 μg/ml in water"}, "[6]": {"tested_on": "E. Coli", "experiment": "antibiotic activity (MIC)", "type": "cell-based", "conditions": "Escherichia coli, read-out: MIC, E. Coli"}, "[7]": {"tested_on": "P. aerug", "experiment": "antibiotic activity (MIC)", "type": "cell-based"}, "[8]": {"tested_on": "S. aureus", "experiment": "antibiotic activity (MIC)", "type": "cell-based", "conditions": "Staphylococcus aureus"}},
  "note": "Like-named read-outs stand apart in the source and are kept apart here.",
  "data": [
    {"smiles": "COC(=O)CCC(C)[C@H]1CCC2C3CC[C@H]4C[C@H](NCCCNCCCCNCCCN)CC[C@]4(C)C3CC[C@@]21C", "note": "(stereo partly drawn) [drawing 108]", "values": [
      {"measurement": "minimal effective concentration", "setting": "[1]", "result": 6.8, "unit": "µg/mL"}
    ]},
    {"smiles": "CC(COS(=O)(=O)O)C(=O)CC[C@@H](C)[C@H]1CC[C@H]2[C@@H]3[C@H](O)C[C@H]4C[C@@H](NCCCNCCCCN)CC[C@]4(C)[C@H]3CC[C@]12C", "note": "(single isomer, unassigned) [Compound 1360]", "values": [
      {"measurement": "vitelline capillary regression", "setting": "[2]; 1 μg applied, 60 minutes", "result": 0},
      {"measurement": "effect on blood color in chick embryo", "setting": "[2]; within 20 minutes", "result": "the blood circulating through the embryonic vessels exhibited a brighter red color"},
      {"measurement": "inhibition at 1 µg/mL", "setting": "[3]; 1 μg/ml", "result": 5, "unit": "%"},
      {"measurement": "inhibition at 5 µg/mL", "setting": "[3]; 5 μg/ml", "result": 5, "unit": "%"},
      {"measurement": "inhibition at 10 µg/mL", "setting": "[3]; 10 μg/ml", "result": 5, "unit": "%"},
      {"measurement": "chemical stability", "setting": "[4]", "result": "undergoes a dehydration of the 27 hydroxyl, loss of sulfate, and generation of the corresponding 27-ene"},
      {"measurement": "pharmacological response in tadpole", "setting": "[5]", "result": "Swelling and lysis of certain erythrocytes occurred, resulting in accumulation of nuclei within certain small vessels of the tail. Subsequent tissue breakdown occurred in areas of tail surrounding these nuclear plugs."},
      {"measurement": "pharmacological response in tadpole", "setting": "[5]; listed as compound 1360", "result": "extensive vasocclusion occurred within 60 minutes throughout the tail"}
    ]},
    {"smiles": "COC(=O)CCC(C)[C@H]1CCC2C3C[C@@H](O)[C@H]4C[C@H](NCCN)CC[C@]4(C)C3CC[C@@]21C", "note": "(stereo partly drawn)", "values": [
      {"measurement": "MIC", "setting": "[6]", "result": "32 to 44", "unit": "µg/mL"},
      {"measurement": "MIC", "setting": "[7]", "result": 128, "unit": "µg/mL"}
    ]},
    {"smiles": "CC(C)CCC[C@@H](C)[C@H]1CC[C@H]2[C@@H]3CC[C@H]4C[C@H](NCCCN5CCCCN=C5N)CC[C@]4(C)[C@H]3CC[C@]12C", "values": [
      {"measurement": "MIC", "setting": "[8]", "result": 2, "unit": "µg/mL"}
    ]}
  ]
}
